According to patent US10322103B2, “Compositions for prevention/prophylactic treatment of poison ivy dermatitis” (The University of Mississippi, priority 2008, dated 2019):

Key:
[1] = test system: urushiol contact dermatitis; test: Induction of tolerance to poison ivy/poison oak urushiol in the guinea pig contact dermatitis model; assay type: in vivo, Hartley guinea pigs; conditions: for erythema at the exposure site / erythema or edema observed: Test #1; for erythema at the exposure site: 24, 48 or 72 hrs post challenge, urushiol 3.0, 4.5 and 6.0 ug; for erythema or edema at the site of urushiol challenge: 24 hours, any of the doses used; for skin lesion scores compared to groups IV and V: all the 3 tests
Source text: Animals: Hartley strains of guinea pigs (n=40) were obtained from Harlan, Indianapolis Ind. 46229. The animals were divided in the 5 groups (n=8/group) and treated as described hereunder. These animals were kept in a controlled environment with a 12-hour day and night cycle and provided feed and water ad libitum. Study design: FIG. 8 describes the general procedure for determining the efficacy of the agents produced according to the present invention.
Application sites of urushiol challenge doses on abdominal skin are shown in FIG. 9, and are described below.
Group I. Animals in this group were given the compound (4) (HDC 4-(4-aminophenyl) butyrate ester) via the intramuscular (IM) route; 300 ul of the equivalent of 20 mg/mL solution of the free catechol in 5% ethanol in each hind leg. Two weeks later these animals were sensitized with urushiol (100 uL acetone containing 1.0 mg of urushiol) on the surface skin in the neck region. Two weeks later the animals were challenged with urushiol (15 uL volume acetone containing 3.0 ug, 4.5 ug or 6.0 ug) on the abdominal skin in a volume of 15 uL. The vehicle contained 15 uL of acetone (see diagram 2). The animals were tested 3 times after sensitization: Test #1 at two weeks post sensitization, test #2 conducted at four weeks post sensitization and test #3 was conducted twelve weeks post sensitization.
Group II. Animals were given 300 uL of the equivalent of 20 mg/mL solution of the free catechol in 5% ethanol of HDC Phenyl alaninate ester (compound 3) via the IM route in each hind leg (total 600 uL). This was followed by sensitization with urushiol on the neck, and then tested with urushiol challenge on the abdominal skin as described for group I.
Group III. Animals were given 300 uL of the equivalent of 20 mg/mL solution of the free catechol in 5% ethanol of HDC Hemiglutarate ester (compound 5) via the IM route in each hind leg. This was followed, two weeks later, by sensitization with (urushiol 100 uL) on the neck, followed by abdominal skin test as described for group I.
Group IV. Animals were given 300 uL of vehicle (5% ethanol) via the IM route in each of the hind legs. This was followed, two weeks later, by sensitization and then followed by abdominal skin test as described for group I.
Group V. Animals in this group were given PBS (300 uL in each of the hind legs) via the IM route. This was followed two weeks later by sensitization and then followed by abdominal skin test as described for group I.
After challenging the animals with urushiol on their abdominal skin, the severity of Erythema and Edema were observed and scored according to the Draize scoring system as shown below. The scores were recorded at 24, 48 and 72 hrs post urushiol skin application.

[2] = Polarity: dissolution in ethanol and dilution with aqueous medium; assay type: physicochemical
Source text: Polarity of HDC-Phenyl Alaninate Ester:

[3] = Test #2, 48 hours, urushiol challenge dose 4.5 ug
[4] = Test #2, 48 hours, urushiol challenge dose 6.0 ug

Row | appearance of solution (polarity) ([2]; 10 mg as a HCl salt in 50 ul of ethanol, adjusted to 1 mL with water (10 mg/mL)) | appearance of solution (polarity) ([2]; 10 mg dissolved in 50 ul of ethanol, adjusted to 1 ml with water) | appearance of solution (polarity) ([2]; 10 mg in 50 ul of ethanol, adjusted to 1 ml with potassium phosphate buffer (pH 8)) | SMILES | erythema at the exposure site [1] | erythema or edema observed ([1]; 48 hours post challenge) | erythema or edema observed ([1]; 72 hours post challenge) | total skin lesion score [1, 3] | total skin lesion score [1, 4] | erythema or edema at the site of urushiol challenge ([1]; Test #3) | skin lesion scores compared to groups IV and V [1] | skin lesion score ([1]; Test #2, 48 hours, all challenge doses) | lesion score ([1]; Test #3, 48 hours) | total lesion score ([1]; Test #2, 72 hours)
1 | clear solution | – | – | CCCCCCCCCCCCCCCCCc1cccc(OC(=O)CCCc2ccc(N)cc2)c1OC(=O)CCCc1ccc(N)cc1 [Compound 4] | did not show any or showed very slight erythema | no erythema or edema was observed | no erythema or edema was observed | 1.5 | 1.5 | did not show erythema or edema | negligible | – | – | –
2 | – | formed a homogenous solution | – | CCCCCCCCCCCCCCCCCc1cccc(OC(=O)[C@@H](N)Cc2ccccc2)c1OC(=O)[C@@H](N)Cc1ccccc1 [Compound 3, HDC-Phenyl Alaninate Ester] | did not show any or showed very slight erythema | no erythema or edema was observed | no erythema or edema was observed | – | – | did not show erythema or edema | negligible | ≤ 1.0 | ≤ 1.0 | –
3 | – | – | formed a homogenous solution | CCCCCCCCCCCCCCCCCc1cccc(OC(=O)CCCC(=O)O)c1OC(=O)CCCC(=O)O [Compound 5, 5,5′(3-heptadecyl-1,2-phenylene)bis(oxy)bis(5-oxopentanoic acid)] | did not show any or showed very slight erythema | no erythema or edema was observed | no erythema or edema was observed | 1.0 | 2.5 | did not show erythema or edema | negligible | – | – | ≤ 2.0
